Measured values published in US20230391841A1, “MACROCYCLIC PEPTIDES” (Herantis Pharma OYJ, priority 2019, published 2023).
Bridge positions count the residues as written; N and C are the ends. Peptide text beside a SMILES is read from it.

What was measured:
[1] = In vitro metabolic stability in rat plasma; type: in vitro ADME; settings: 1 μM, 37° C., up to 120 min
Procedure: The linear and macrocyclic compounds 1-14 and 23-26 (SEQ ID NOs: 1-14 and 23-26) were incubated in concentration 1 μM with rat plasma (Sprague-Dawley, male; 400 μl) for different time points (0, 20, 40, 60 or 120 min) at 37° C. The incubation was terminated by acetonitrile. The collected samples were centrifuged for 20 min at 2272×g and analyzed. io Stock solutions were prepared using 50% DMSO, and the compounds were spiked 1/100 to incubation to have final DMSO content of 0.5%. The samples were analyzed by UHPLC/PDA with high resolution mass spectrometry (QE-Orbitrap-MS on DDI mode) to monitor disappearance of the compound. Enalapril 1 μM was used as a disappearance rate control. For analysis of compounds 9, 10, 13 and 14 stock solutions were prepared with PBS, and samples were analyzed by UHPLC-ToF mass spectrometry. The analytical method was optimized by using the parent compounds for optimum chromatographic properties (peak shape and retention) and mass spectrometric ionization. The ion chromatograms were extracted from the total ion chromatograms using calculated monoisotopic accurate masses with 5 mDa window. Disappearance was based on LC/MS peak areas, marking 0 min as 100%.
The first-order rate constants k (min-1) of the metabolism were obtained from the slope of time versus logarithm (% of remaining compound) plot using Excel software. The in vitro half-life (t1/2) of study compound is defined as: t1/2=In2/k. Calculated half-life is based on compound disappearance from rat plasma.

[2] = In vivo pharmacokinetics after intravenous administration to rats; set-up: species or system male Sprague-Dawley rats; settings: for AUC(0-inf) / MRT / Vd / half-life / clearance: rat, 5 mg/kg intravenous bolus, male Sprague-Dawley rats; for AUC(0-inf) / MRT / Vd / half-life: in vivo; for clearance: plasma, read-out: CI
Procedure: The clearance and elimination of peptides can be mediated by multiple processes in vivo, including metabolism and renal elimination.
Test compounds were intravenously (i.v.) administered to male Spraque-Dawley rats (about is six weeks old, n=3 per compound) at 5 mg/kg. Blood samples were collected from jugular vein through implanted in-dwelling catheters (250 pl blood) into labelled polypropylene tubes containing anticoagulant (heparin) at 2 min, 5 min,15 min, 30 min, 1 h, 2 h and 4 h after compound administration and held on wet ice for a maximum of 30 minutes. The blood samples were centrifuged for plasma separation (4 °C, 21100 G, 5 min). Tolbutamide 500ng/ml with 10% TFA in acetonitrile or in MeCN was used as an internal standard solution.
The standard samples were prepared into rat plasma by spiking the matrix into concentrations 2-10 000 ng/ml of the analyte, respectively, and otherwise treated as the samples. To 50 pl aliquots of sample plasma was added 200 pl of internal standard. Samples were mixed (150 rpm, 15 min) and centrifugated (3000 rpm, 15min). The analytical method was optimized for reaction monitoring chromatographic (peak shape & retention) shifts and mass spectrometric properties (ionization efficiency, MS/MS detection). Supernatants were analyzed by UHPLC-TOF mass spectrometry using electrospray ionization.

[3] = test system: dopaminergic TH-positive neurons injured with MPP+; experiment: Neuroprotective effect on dopaminergic TH-positive neurons injured with MPP+ (primary mesencephalic culture); type: cell-based, rat; settings: MPP+ injured TH-positive neurons
Procedure: Neuroprotective effects of compounds 1-26 (SEQ ID NO: 1-26) were tested in an in vitro model in which primary cultures of rat embryonic mesencephalic neurons were stressed with MPP+ , the active metabolite of neurotoxin 1-methyl-4-phenyl-1,2,3,6-tetrahydropyridine (MPTP). MPP+ kills dopaminergic (TH-positive) neurons via a variety of toxic mechanisms, including mitochondrial dysfunction, generation of peroxynitrite, oxidative stress, ER stress and induction of apoptosis.
Culture of mesencephalic neurons. Rat dopaminergic neurons were cultured as described by Visanji et al., 2008. Briefly, the midbrains obtained from 15-day-old rat embryos (Janvier, France) were dissected, and the ventral portion of the mesencephalic flexure, a region of the developing brain rich in dopaminergic neurons, was used for the cell preparations. The midbrain cells were dissociated by trypsinization for 20 min at 37° C. (solution at a final concentration of 0.05% trypsin and 0.02% EDTA). The reaction was stopped by adding Dulbecco's modified Eagle's medium (DMEM) containing DNAase I grade II (0.5 mg/mL) and 10% of fetal calf serum (FCS). Cells were then mechanically dissociated by 3 passages through a 10 ml pipette. Cells were then centrifuged at 180×g for 10 min at +4° C. on a layer of BSA (3.5%) in L15 medium. The cell pellets were re-suspended in a defined culture serum-free medium consisting of Neurobasal (Invitrogen) supplemented with B27 (2%), L-glutamine (2 mM) and 2% of PS solution and 1Ong/ml of Brain-derived neurotrophic factor (BDNF) and 1 ng/mL of Glial-Derived Neurotrophic Factor (GDNF). Viable cells were counted in a Neubauer cytometer using the trypan blue exclusion test. The cells were seeded at a density of 40 000 cells/well in 96 well-plates (pre-coated with poly-L-lysine) and maintained in a humidified incubator at 37° C. in 5% CO2/95% air atmosphere. Half of the medium was changed every 2 days with fresh medium. On 96-wells plates, only 60 wells are used. To avoid any edge effect, the first and last lines and columns were not used for culture and were filled with sterile water.
CDNF as well as linear and macrocyclic compounds […] (SEQ ID NOs: 1-26) were tested. On day 6 of culture, the compounds were dissolved in culture medium and then pre-is incubated with mesencephalic neurons for 4 hours before the MPP+ application. Four hours after the preincubation of the compounds, MPP+ was added to a final concentration of 4 pM, diluted in control medium still in presence of compounds for 48 h.
48 h after intoxication, the cells were fixed by a solution of 4% paraformaldehyde in PBS, pH 7.3 for 20 min at room temperature. The cells were washed twice in PBS, and then permeabilized and non-specific sites were blocked with a solution of PBS containing 0.1% of saponin and 1% FCS for 15 min at room temperature. Next, the cells were incubated with (a) a monoclonal antibody anti-Tyrosine Hydroxylase (TH) produced in mouse at dilution of 1:10000 and with (b) a polyclonal antibody anti-alpha-synuclein (α-syn) antibody produced in rabbit at dilution of 1:400 in PBS containing 1% FCS, 0.1% saponin, for 2 h at room temperature.
48 h after intoxication, the cell culture supernatant was removed, and the cells fixed by a solution of 4% paraformaldehyde in PBS, pH 7.3 for 20 min at room temperature. The cells were washed twice in PBS, and then permeabilized and non-specific sites were blocked with a solution of PBS containing 0.1% of saponin and 1% FCS for 15 min at room temperature. Then, the cells were incubated with a) a monoclonal Anti-Tyrosine Hydroxylase (TH) antibody produced in mouse at dilution of 1:10000 in PBS containing 1% FCS, 0.1% saponin, for 2 hours at room temperature, and b) a polyclonal anti-postsynaptic density protein-95 (PSD-95) antibody produced in rabbit at dilution of 1:200 in PBS containing 1% FCS, 0.1% saponin, for 2 h at room temperature. This antibody stains specifically synapses. […]

## CC[C@H](C)[C@@H]1NC(=O)[C@H](CCC(N)=O)NC(=O)[C@H](CCCCN)NC(=O)[C@H](CC(C)C)NC(=O)[C@H](CCC(=O)O)NC(=O)[C@H](C)NC(=O)[C@H](C(C)C)NC(=O)[C@H](CCCNC(=N)N)NC(=O)[C@H](CCSC)NC(=O)[C@H](CCCCN)NC(=O)[C@H](CCCNC(=N)N)NC(=O)[C@H](CC(C)C)NC(=O)[C@H](CC(=O)O)NC(=O)[C@H](C(C)C)NC(=O)[C@H](CCC(=O)O)NC(=O)[C@H](C)NC(=O)[C@@H]2CSSC[C@H](NC(=O)[C@H](CCC(=O)O)NC(=O)[C@H](CCC(=O)O)NC(=O)CNC(=O)[C@H](Cc3c[nH]c4ccccc34)NC(=O)[C@H](CO)NC(=O)[C@H](Cc3c[nH]cn3)NC(=O)[C@H](CC(C)C)NC1=O)C(=O)N[C@@H](CCCNC(=N)N)C(=O)N[C@@H](C)C(=O)N2 [Compound 2] (cyclo(ACAEVDLRKMRVAELKQILHSWGEECR); disulfide 2-26)
[1]
  stability in rat plasma as compared to linear counterpart: improved stability
[2]
  AUC(0-inf): 4440 ng·h/mL
  MRT: 1.01 min
  Vd: 0.02 L/kg
  half-life: 3.78 min
  clearance: 20.6 mL/min/kg
[3]
  potency of macrocyclic peptide versus its linear counterpart: comparable

## C[C@@H]1NC(=O)[C@@H]2CSSC[C@H](NC(=O)[C@H]([C@@H](C)O)NC(=O)[C@H](CCC(=O)O)NC(=O)CNC(=O)[C@H](Cc3c[nH]c4ccccc34)NC(=O)[C@H](CO)NC(=O)[C@H](CCCCN)NC(=O)[C@H](CCC(=O)O)NC1=O)C(=O)N[C@@H](CCCCN)C(=O)NCC(=O)NCC(=O)N2 [Compound 26, WGETCKGGCAEKS] (cyclo(AEKSWGETCKGGC); disulfide 9-13)
[1]
  stability in rat plasma as compared to linear counterpart: improved stability
[3]
  potency of macrocyclic peptide versus its linear counterpart: comparable

## C[C@@H]1NC(=O)CNC(=O)[C@H](CCCNC(=N)N)NC(=O)[C@@H]2CSSC[C@H](NC1=O)C(=O)N[C@@H](C)C(=O)N[C@@H](CCC(=O)O)C(=O)N[C@@H](CCCCN)C(=O)N[C@@H]([C@@H](C)O)C(=O)N[C@@H](Cc1c[nH]c3ccccc13)C(=O)NCC(=O)N[C@@H](CCC(=O)O)C(=O)N[C@@H](CCC(=O)O)C(=O)N2 [Compound 24, WGEECRGACAEKT] (cyclo(ACAEKTWGEECRG); disulfide 2-11)
[3]
  potency of macrocyclic peptide versus its linear counterpart: comparable

## CC[C@H](C)[C@@H]1NC(=O)[C@H](CCC(N)=O)NC(=O)[C@H](CCCCN)NC(=O)[C@H](CC(C)C)NC(=O)[C@H](CCC(=O)O)NC(=O)[C@H](C)NC(=O)[C@H](C(C)C)NC(=O)[C@H](CCCNC(=N)N)NC(=O)[C@H](CCSC)NC(=O)[C@H](CCCCN)NC(=O)[C@H](CCC(=O)O)NC(=O)[C@H](C)NC(=O)[C@@H]2CSSC[C@H](NC(=O)[C@H](CCC(=O)O)NC(=O)[C@H](CCC(=O)O)NC(=O)CNC(=O)[C@H](Cc3c[nH]c4ccccc34)NC(=O)[C@H](CO)NC(=O)[C@H](Cc3c[nH]cn3)NC(=O)[C@H](CC(C)C)NC1=O)C(=O)N[C@@H](CCCNC(=N)N)C(=O)N[C@@H](C)C(=O)N2 [Compound 6] (cyclo(ACAEKMRVAELKQILHSWGEECR); disulfide 2-22)
[3]
  potency of macrocyclic peptide versus its linear counterpart: comparable

## C[C@@H]1NC(=O)[C@@H]2CSSC[C@H](NC(=O)[C@H]([C@@H](C)O)NC(=O)[C@H](CCC(=O)O)NC(=O)CNC(=O)[C@H](Cc3c[nH]c4ccccc34)NC(=O)[C@H](CO)NC(=O)[C@H](CCCCN)NC(=O)[C@H](CCC(=O)O)NC1=O)C(=O)N[C@@H](CCCCN)C(=O)NCC(=O)N2 [Compound 14, WGETCKGCAEKS] (cyclo(AEKSWGETCKGC); disulfide 9-12)
[1]
  stability in rat plasma as compared to linear counterpart: improved stability
[2]; intravenous administration to rats
  plasma half-life, volume of distribution and mean residence time: improved
[2]; intravenous, 5 mg/kg, rats
  blood retention behavior: improved blood retention behavior
  time detected in the plasma after administration: ≥ 2 h
[2]
  AUC(0-inf): 4970 ng·h/mL
  MRT: 7.05 min
  Vd: 0.12 L/kg
  half-life: 15.8 min
  clearance: 16.8 mL/min/kg
[3]
  potency of macrocyclic peptide versus its linear counterpart: comparable

## CC[C@H](C)[C@@H]1NC(=O)[C@H](CCCCN)NC(=O)[C@H](CCCCN)NC(=O)[C@H](CC(C)C)NC(=O)[C@H](CCC(=O)O)NC(=O)[C@H](CCCCN)NC(=O)[C@H](C(C)C)NC(=O)[C@H](CCCNC(=N)N)NC(=O)[C@H](CC(C)C)NC(=O)[C@H](CCCCN)NC(=O)[C@H](CCC(=O)O)NC(=O)[C@H](C)NC(=O)[C@@H]2CSSC[C@H](NC(=O)[C@H]([C@@H](C)O)NC(=O)[C@H](CCC(=O)O)NC(=O)CNC(=O)[C@H](Cc3c[nH]c4ccccc34)NC(=O)[C@H](CC(=O)O)NC(=O)[C@H](CC(=O)O)NC(=O)[C@H](CC(C)C)NC1=O)C(=O)N[C@@H](CCCCN)C(=O)NCC(=O)N2 [Compound 8] (cyclo(AEKLRVKELKKILDDWGETCKGC); disulfide 20-23)
[1]
  stability in rat plasma as compared to linear counterpart: improved stability
[3]
  potency of macrocyclic peptide versus its linear counterpart: comparable

## C[C@@H]1NC(=O)[C@@H]2CSSC[C@H](NC(=O)[C@H](CCC(=O)O)NC(=O)[C@H](CCC(=O)O)NC(=O)CNC(=O)[C@H](Cc3c[nH]c4ccccc34)NC(=O)[C@H]([C@@H](C)O)NC(=O)[C@H](CCCCN)NC(=O)[C@H](CCC(=O)O)NC1=O)C(=O)N[C@@H](CCCNC(=N)N)C(=O)N[C@@H](C)C(=O)N2 [Compound 12, WGEECRACAEKT] (cyclo(ACAEKTWGEECR); disulfide 2-11)
[3]
  potency of macrocyclic peptide versus its linear counterpart: comparable
